In patent US6461997B1, “Triazole sulfones having herbicidal activity” (Monsanto Technology LLC, priority 1999, dated 2002):

How the values were obtained:
[1] = test system: PANDI (fall panicum); assay: Pre-emergence herbicidal activity, warm season; format: in vivo, Panicum dichotomiflorum; conditions: GR80 = lowest tested rate (300, 100, 30, 10 g/ha) with 80% or greater inhibition; approx. 14 days after treating; 30/21° C.
Summary of the method: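 Seeds sown in sterilised fertilised topsoil received surface-applied compound in 50:50 acetone/water, typically at 300, 100, 30 and 10 g/ha, then greenhouse-grown at 30/21° C (warm-season species) or 18/13° C (cool-season species). Percent inhibition versus untreated plants was scored at about 14 days, giving GR80; an asterisk marks activity short of 80% at the top rate.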

[2] = test system: POLCO (wild buckwheat); assay: Pre-emergence herbicidal activity, cool season; format: in vivo, Polygonum convolvulus; conditions: lowest tested rate with 80% or greater inhibition; rates 300, 100, 30, 10 g/ha; about 14 days
Summary of the method: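 Activity is expressed as the rate giving 80% inhibition, with 300, 100, 30 and 10 g/ha typically tested. An asterisk marks activity short of 80% at the top rate. Warm-season grasses were held at 30/21 °C; cool-season blackgrass and wild buckwheat at 18/13 °C; scoring at about 14 days.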

[3] = test system: STEME (common chickweed); assay: Pre-emergence herbicidal activity, cool season; format: in vivo, Stellaria media; conditions: lowest tested rate with 80% or greater inhibition; rates 300, 100, 30, 10 g/ha; about 14 days
Summary of the method: (§1)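 GR80 values derive from percent inhibition relative to untreated plants, read roughly 14 days after sowing and pre-emergence soil-surface treatment (compound in 50:50 acetone/water; rates typically 10, 30, 100, 300 g/ha). Warm-season weeds grew at 30/21° C day/night, cool-season ones at 18/13° C; an asterisk marks activity without reaching 80% at the highest rate.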

[4] = test system: AGSST (creeping bentgrass); assay: Pre-emergence herbicidal activity, cool season; format: in vivo, Agrostis stolonifera; conditions: GR80 = lowest tested rate (300, 100, 30, 10 g/ha) with 80% or greater inhibition; approx. 14 days after treating; 18/13° C.
Summary of the method: as §1

[5] = test system: BRAPP (broadleaf signalgrass); assay: Pre-plant incorporated (PPI) herbicidal activity, warm season; format: in vivo, Brachiaria platyphylla; conditions: PPI application
Protocol: (§2) In another set of tests, the pre-plant incorporated (PPI) activity of compounds of this invention was evaluated on the same species as for the pre-emergence tests described above. In the PPI tests the following procedure, designed to simulate PPI application, was used.
(§3) A pre-prepared topsoil mixture (described above) was placed in a pot and compacted to a depth of 1.0 to 1.25 cm from the top of the pot. Seeds of each of several monocotyledonous and dicotyledonous annual plant species were placed on top of the soil. A sufficient quantity of soil to cover the seeds and level fill the pot was weighed into an open container. A known amount of the test compound was dissolved or suspended in an organic solvent and applied by spraying to this cover soil. The cover soil was thoroughly mixed to distribute the test compound throughout the cover soil, and was then applied as a cover layer over the seeds. Untreated soil was used as a cover layer for control pots. After treatment the plants were placed in a greenhouse where they received 0.64 cm of overhead irrigation. All subsequent watering consisted of a light overhead mist and/or subirrigation as needed for germination and growth. Tables 9 and 10 below relate to warm season plant species which were placed after pre-emergence treatment in a greenhouse with a 30/21° C. day/night temperature regime. Tables 11 and 12 below relates to cool season plant species placed after pre-emergence treatment in a greenhouse or growth chamber with an 18/13° C. day/night temperature regime. Only the compounds of Examples 1, 6, 8, 11, 13 and 15-20 were included in PPI tests.
(§4) Approximately 14 days after planting and treating, the plants were observed and herbicidal efficacy recorded as percent inhibition by comparison with untreated plants.

[6] = test system: SINAR (wild mustard); assay: Pre-plant incorporated (PPI) herbicidal activity, cool season; format: in vivo, Sinapis arvensis; conditions: weed, PPI application
Protocol: as §2, §3, §4

[7] = test system: ALOMY (blackgrass); assay: as above; format: in vivo, Alopecurus myosuroides; conditions: weed, PPI application
Protocol: as §2, §3, §4

[8] = test system: BROTE (downy brome); assay: as above; format: in vivo, Bromus tectorum; conditions: weed, PPI application
Protocol: as §2, §3, §4

[9] = test system: AVEFA (wild oat); assay: as above; format: in vivo, Avena fatua; conditions: weed, PPI application
Protocol: as §2, §3, §4

[10] = test system: corn (ZEAMX); assay: Selectivity test, PPI, warm season crop; format: in vivo, Zea mays; conditions: PPI application
Protocol: as §3, §4
Additional pre-emergence and PPI tests were conducted by the procedures described above, on warm and cool season weed species in the presence of crop species, to assess herbicidal selectivity. Crop species included in warm season tests were corn (Zea mays, ZEAMX), rice (Oryza sativa, ORYSA) and soybean (Glycine max, GLYMX). Crop species included in cool season tests were wheat (Triticum aestivum, TRZAW), barley (Hordeunm vulgare, HORVX) and oilseed rape (Brassica napus, BRSNS).
Tables 15 and 16 relate to pre-emergence and PPI tests respectively on warm season species. Table 17 relates to pre-emergence tests on cool season species.

Structure (SMILES): CCN(CC)C(=O)n1cnc(S(=O)(=O)C(F)(F)F)n1 [Example 2]
- Pre-emergence activity (GR80) PANDI [1]: 30 g/ha
- Pre-emergence activity GR80, POLCO [2]: [empty]
- Pre-emergence activity GR80, STEME [3]: 10 g/ha
- Pre-emergence activity (GR80) AGSST [4]: 30 g/ha
- Percent inhibition BRAPP ([5]; 30 g/ha): 80%
- Percent inhibition BRAPP ([5]; 100 g/ha): 50%
- Percent inhibition BRAPP ([5]; 300 g/ha): 90%
- Percent inhibition BRAPP ([5]; 900 g/ha): 70%
- Percent inhibition SINAR ([6]; 30 g/ha): 10%
- Percent inhibition SINAR ([6]; 100 g/ha): 100%
- Percent inhibition SINAR ([6]; 300 g/ha): 100%
- Percent inhibition SINAR ([6]; 900 g/ha): 100%
- Percent inhibition ALOMY ([7]; 30 g/ha): 50%
- Percent inhibition ALOMY ([7]; 100 g/ha): 90%
- Percent inhibition ALOMY ([7]; 300 g/ha): 100%
- Percent inhibition ALOMY ([7]; 900 g/ha): 100%
- Percent inhibition BROTE ([8]; 30 g/ha): 0%
- Percent inhibition BROTE ([8]; 100 g/ha): 40%
- Percent inhibition BROTE ([8]; 300 g/ha): 50%
- Percent inhibition BROTE ([8]; 900 g/ha): 100%
- Percent inhibition AVEFA ([9]; 30 g/ha): 0%
- Percent inhibition AVEFA ([9]; 100 g/ha): 10%
- Percent inhibition AVEFA ([9]; 300 g/ha): 20%
- Percent inhibition AVEFA ([9]; 900 g/ha): 50%
- Percent inhibition ZEAMX ([10]; 30 g/ha): 5%
- Percent inhibition ZEAMX ([10]; 100 g/ha): 10%
- Percent inhibition ZEAMX ([10]; 300 g/ha): 50%
- Percent inhibition ZEAMX ([10]; 900 g/ha): 80%
